Laboratory results reported in US3963707A, “Novel N-nitroso compounds, compositions containing such compounds, processes for their preparation and methods of treatment therewith, and novel intermediates” (Aktiebolaget Leo, priority 1973, dated 1976).

The compounds below were run on Hepatoma AH 130 (assay: in vivo). Settings: additional compounds, result in words.
Design: species or system SPF Wistar rats
Excerpt: The high activity against tumours is further illustrated in these experiments by comparisons with known antitumour agents used in the therapy. The therapeutic indexes (T.I.), i.e. the ratios LD50/ED50, are in all comparisons much more favourable with the compounds of the present invention.
LD50 is the dose that caused a 50 percent lethality of the animals, ED50 is the dose that caused a 50 percent reduction of tumour size.
The experimental design and the interpretation of the results have been in accordance with the standards set by the CCNSC (Cancer Chemotherapy Reports, January 1959 and December 1962), and by the DR&D (Cancer Chemotherapy Reports, September 1972, Vol. 3, No. 2).
The way of administration is by the intraperitoneal route (i.p.) in each case.
Experimental animals: SPF Wistar rats.
Tumour implant: 5 × 10^6 tumour cells i.p.
Therapy: One injection i.p. on the day following implantation.
Termination: The animals are killed on the 8th day.
Evaluation: Weights of tumours of test animals compared with those of control animals.
With `Cc1ccc(N(C(=O)O[C@H]2CC[C@@]3(C)C(=CC[C@@H]4[C@@H]3CC[C@]3(C)C(=O)CC[C@@H]43)C2)C(=O)N(CCCl)N=O)cc1C` [dehydroepiandrosterone-3β-/N^2-(3,4-dimethylphenyl)-N^4-(2-chloroethyl)-N^4-nitroso allophanate/] the anti-tumor activity was “exhibit anti-tumor activity”. In the case of `C#C[C@]1(OC(C)=O)CC[C@H]2[C@@H]3CCC4=C[C@@H](OC(=O)N(C(=O)N(CCCl)N=O)C5CCC(C)CC5)CC[C@@H]4[C@H]3CC[C@@]21C` (stereo partly drawn) [ethynodiol-17β-acetate-3β-/N^2-(4-methylcyclohexyl)-N^4-(2-chloroethyl)-N^4-nitroso allophanate/], the anti-tumor activity is reported as “exhibit anti-tumor activity”. `CC(=O)[C@@]1(OC(=O)N(CCCl)N=O)CC[C@H]2[C@@H]3C=C(Cl)C4=CC(=O)CC[C@]4(C)[C@H]3CC[C@@]21C` [6-chloro-6-dehydro-17α-hydroxyprogesterone,17α-N-(2-chloroethyl)-N-nitroso carbamate] was tested, and the anti-tumor activity was “exhibit anti-tumor activity”. With `C[C@]12CC[C@H]3[C@@H](CC=C4C[C@@H](OC(=O)N(CCCl)N=O)CC[C@@]43C)[C@@H]1CC[C@@H]2OS(=O)(=O)O` [androstenediol-3β-/N-(2-chloroethyl)-N-nitroso carbamate/-17β-sodium sulphate] the anti-tumor activity was “exhibit anti-tumor activity”. With `CCCCC(=O)O[C@H]1CC[C@H]2[C@@H]3CCc4cc(OC(=O)N(CCCl)N=O)ccc4[C@H]3CC[C@]12C` [estradiol-17β-valerate-3-N-(2-chloroethyl)-N-nitroso carbamate] the anti-tumor activity was “exhibit anti-tumor activity”. With `CC(C)(C)C(=O)OCC(=O)[C@@]1(O)CC[C@H]2[C@@H]3CCC4=CC(=O)C=C[C@]4(C)[C@H]3[C@@H](OC(=O)N(CCCl)N=O)C[C@@]21C` [prednisolone-11β-/N-(2-chloroethyl)-N-nitroso carbamate/-21-pivalate] the anti-tumor activity was “exhibit anti-tumor activity”. `C[C@]12CCC(=O)C=C1CC[C@@H]1[C@@H]2CC[C@@]2(C)[C@H]1CC[C@]2(C)OC(=O)N(CCCl)N=O` [17α-methyltestosterone-17β-N-(2-chloroethyl)-N-nitroso carbamate] was tested, and the anti-tumor activity was “exhibit anti-tumor activity”. `CCCCCCOc1ccc(CCC(=O)O[C@H]2CC[C@H]3[C@@H]4CC=C5C[C@@H](OC(=O)N(CCCl)N=O)CC[C@]5(C)[C@H]4CC[C@]23C)cc1` [androstenediol-17β-p-hexoxyphenylpropionate-3β-N-(2 -chloroethyl)-N-nitroso carbamate] was tested, and the anti-tumor activity was “exhibit anti-tumor activity”. In the case of `CC(=O)O[C@H]1CC[C@H]2[C@@H]3CCc4cc(OC(=O)N(CCF)N=O)ccc4[C@H]3CC[C@]12C` [estradiol-17β-acetate-3-N-(2-fluoroethyl)-N-nitroso carbamate], the anti-tumor activity is reported as “exhibit anti-tumor activity”. For `CC1=C2CC[C@H]3[C@@H]4CC[C@H](OC(=O)N(CCCl)N=O)[C@@]4(C)CC[C@@H]3[C@@]2(C)CCC1=O` [4-methyl-testosterone-17β-N-(2-chloroethyl)-N-nitroso carbamate], the anti-tumor activity was “exhibit anti-tumor activity”. In the case of `C[C@]12CC[C@H]3[C@@H](CC=C4C[C@@H](OC(=O)N(CCCl)N=O)CC[C@@]43C)[C@@H]1CC[C@@H]2OP(=O)(O)O` [androstenediol-3β-/N-(2-chloroethyl)-N-nitroso carbamate/-17β-dihydrogen phosphate], the anti-tumor activity is reported as “exhibit anti-tumor activity”. `CC(C)CCC[C@@H](C)[C@H]1CC[C@H]2[C@@H]3CC=C4C[C@@H](OC(=O)N(C(=O)N(CCCl)N=O)c5ccccc5)CC[C@]4(C)[C@H]3CC[C@]12C` [cholesterol-3β-/N^2-phenyl-N^4-(2-chloroethyl)-N^4-nitroso allophanate/] was tested, and the anti-tumor activity was “exhibit anti-tumor activity”. For `CO[C@H]1CC[C@H]2[C@@H]3CC=C4C[C@@H](OC(=O)N(CCCl)N=O)CC[C@]4(C)[C@H]3CC[C@]12C` [androstenediol-17β-methylether-3β-N-(2-chloroethyl)-N-nitroso carbamate], the anti-tumor activity was “exhibit anti-tumor activity”. In the case of `CC(C)CCC[C@@H](C)[C@H]1CC[C@H]2[C@@H]3CC=C4C[C@@H](OC(=O)N(C)C(=O)N(CCCl)N=O)CC[C@]4(C)[C@H]3CC[C@]12C` [cholesterol-3β-/N^2-methyl-N^4-(2-chloroethyl)-N^4-nitroso allophanate/], the anti-tumor activity is reported as “exhibit anti-tumor activity”. In the case of `CC(C)CCC[C@@H](C)[C@H]1CC[C@H]2[C@@H]3CC=C4C[C@@H](OC(=O)NC(=O)N(CCCl)N=O)CC[C@]4(C)[C@H]3CC[C@]12C` [cholesterol-3β-/N^4-(2-chloroethyl)-N^4-nitroso allophanate/], the anti-tumor activity is reported as “exhibit anti-tumor activity”. For `CC1CCC(N(C(=O)Oc2ccc3c(c2)CC[C@@H]2[C@@H]3CC[C@]3(C)C(=O)CC[C@@H]23)C(=O)N(CCCl)N=O)CC1` (stereo partly shown) [estrone-3-/N^2-(4-methylcyclohexyl)-N^4-(2-chloroethyl)-N^4-nitroso allophanate/], the anti-tumor activity was “exhibit anti-tumor activity”. For `CN(C(=O)O[C@H]1CC[C@@]2(C)C(=CC[C@H]3[C@@H]4CC[C@H](OP(=O)(O)O)[C@@]4(C)CC[C@@H]32)C1)C(=O)N(CCCl)N=O` [androstenediol-3β-/N^2-methyl-N^4-(2-chloroethyl)-N^4 nitroso allophanate/-17β-dihydrogen phosphate], the anti-tumor activity was “exhibit anti-tumor activity”. With `CC(=O)[C@H]1CC[C@H]2[C@@H]3CC=C4C[C@@H](OC(=O)N(C(=O)N(CCCl)N=O)c5ccccc5)CC[C@]4(C)[C@H]3CC[C@]12C` [pregnenolone-3β-/N^2-phenyl-N^4-(2-chloroethyl)-N^4-nitroso allophanate/] the anti-tumor activity was “exhibit anti-tumor activity”. With `COc1ccc2c(c1)CC[C@@H]1[C@@H]2CC[C@]2(C)[C@@H](OC(=O)N(C(=O)N(CCCl)N=O)c3ccccc3)CC[C@@H]12` [estradiol-3-methylether-17β-/N^2-phenyl-N^4-(2-chloroethyl)-N^4-nitroso allophanate/] the anti-tumor activity was “exhibit anti-tumor activity”. For `C[C@]12CC[C@H]3[C@@H](CC=C4C[C@@H](OC(=O)N(CCCl)N=O)CC[C@@]43C)[C@@H]1CC[C@@H]2OC(=O)CCC(=O)O` [androstenediol-17β-hemisuccinate-3β-N-(2-chloroethyl)-N-nitroso carbamate], the anti-tumor activity was “exhibit anti-tumor activity”. For `C#C[C@]1(OC(C)=O)CC[C@H]2[C@@H]3CCC4=C[C@@H](OC(=O)N(CCF)N=O)CC[C@@H]4[C@H]3CC[C@@]21C` [ethynodiol-17β-acetate-3β-N-(2-fluoroethyl)-N-nitroso carbamate], the anti-tumor activity was “exhibit anti-tumor activity”. With `CC(=O)[C@H]1CC[C@H]2[C@@H]3CC=C4C[C@@H](OC(=O)N(C(=O)N(CCCl)N=O)C5CCCCC5)CC[C@]4(C)[C@H]3CC[C@]12C` [pregnenolone-3β-/N^2-cyclohexyl-N^4-(2-chloroethyl)-N^4-nitroso allophanate/] the anti-tumor activity was “exhibit anti-tumor activity”. `C[C@]12C=CC(=O)C=C1CC[C@@H]1[C@@H]2[C@@H](O)C[C@@]2(C)[C@H]1CC[C@]2(O)C(=O)COC(=O)N(C(=O)N(CCCl)N=O)C1CCCCC1` [prednisolone-21-/N^2-cyclohexyl-N^4-(2-chloroethyl)-N-nitroso allophanate/] was tested, and the anti-tumor activity was “exhibit anti-tumor activity”. `C#C[C@]1(OC(C)=O)CC[C@H]2[C@@H]3CCC4=C[C@@H](OC(=O)N(C(=O)N(CCCl)N=O)c5ccccc5)CC[C@@H]4[C@H]3CC[C@@]21C` [ethynodiol-17β-acetate-3β-/N^2-phenyl-N^4-(2-chloroethyl)-N-nitroso allophanate/] was tested, and the anti-tumor activity was “exhibit anti-tumor activity”. For `Cc1ccc(N(C(=O)Oc2ccc3c(c2)CC[C@@H]2[C@@H]3CC[C@]3(C)C(=O)CC[C@@H]23)C(=O)N(CCCl)N=O)cc1` [estrone-3-/N^2-(4-methylphenyl)-N^4-(2-chloroethyl)-N^4-nitroso allophanate/], the anti-tumor activity was “exhibit anti-tumor activity”. With `CC1CC2(C)C(CCC3C2CCC2(C)C(OC(=O)N(CCCl)N=O)CCC32)CC1=O` (stereo not drawn) [2α-methyl-dihydrotestosterone-17β-N-(2-chloroethyl)-N-nitroso carbamate] the anti-tumor activity was “exhibit anti-tumor activity”. In the case of `CC(=O)O[C@H]1CC[C@H]2[C@@H]3CCc4cc(OC(=O)N(C)C(=O)N(CCCl)N=O)ccc4[C@H]3CC[C@]12C` [estradiol-17β-acetate-3-/N^2-methyl-N^ 4-(2-chloroethyl)-N^4-nitroso allophanate/], the anti-tumor activity is reported as “exhibit anti-tumor activity”. For `CC(=O)[C@@]1(O)CC[C@H]2[C@@H]3C=C(Cl)C4=C[C@@H](OC(=O)N(CCCl)N=O)CC[C@]4(C)[C@H]3CC[C@@]21C` [6-chloro-pregna-4,6-diene-3β,17α-diol-20-one,3β-N-(2-chloroethyl)-N-nitroso carbamate], the anti-tumor activity was “exhibit anti-tumor activity”. In the case of `C#C[C@]1(OC(=O)N(CCCl)N=O)CC[C@H]2[C@@H]3CCC4=C[C@@H](OS(=O)(=O)O)CC[C@@H]4[C@H]3CC[C@@]21C` [ethynodiol-17β-N-(2-chloroethyl)-N-nitroso carbamate-3β-sodium sulphate], the anti-tumor activity is reported as “exhibit anti-tumor activity”. With `C[C@H]1C[C@H]2[C@@H]3CC[C@H](OC(=O)N(CCCl)N=O)[C@@]3(C)CC[C@@H]2[C@@]2(C)CCC(=O)C=C12` [6α-methyltestosterone-17β-N-(2-chloroethyl)-N-nitroso carbamate] the anti-tumor activity was “exhibit anti-tumor activity”. With `C#C[C@]1(OC(C)=O)CC[C@H]2[C@@H]3CCC4=C[C@@H](OC(=O)NC(=O)N(CCCl)N=O)CC[C@@H]4[C@H]3CC[C@@]21C` [ethynodiol-17β-acetate-3β-/N^4-(2-chloroethyl)-N^4-nitroso allophanate/] the anti-tumor activity was “exhibit anti-tumor activity”.
